Test results reported in patent US9770469B2, “Methods of reprogramming renal cells” (Tel HaShomer Medical Research Infrastructure and Services …, priority 2009, dated 2017).

Columns and labels:
[1] = system: human adult kidney cells; experiment: β-catenin immunofluorescence after VPA; type: cell-based; details: valproic acid 24 hours, vs non-treated cells
Protocol: (§1) Immunofluorescence Staining: AK, FK (treated and untreated) human epithelial cell line and fibroblast cell line were fixed with acetone at −20° C. for seven minutes and washed with PBS. Cells were blocked with 7% human serum in PBS for 15 minutes followed by incubation with β-catenin antibody (1:150) (Chemicon international) for 60 minutes. Cells were washed and then incubated with secondary antibody with Cy-3 conjugated anti-mouse IgG (1:200) (Jackson) for 30 minutes. For nuclear staining, cells were washed with PBS containing Hochest (Dako). The presence of β-catenin was examined under a Zeiss confocal fluorescence microscope.

[2] = system: human fetal kidney cells; experiment: β-catenin immunofluorescence after VPA; type: cell-based; details: valproic acid 24 hours, vs non-treated cells
Protocol: as §1

[3] = system: adult kidney cells; experiment: Chromatin immunoprecipitation (ChIP) of Six2 and Wt1 promoters; type: cell-based, human; details: VPA 4 mM
Protocol: Chromatin Immunoprecipitation Assay (ChIP): 10×10^6 cells adult kidney cells were grown. Untreated cells (control) or cells treated with VPA (4 mM) were cross-linked with 1% formaldehayde for 10 min at RT in culture medium. The cells were washed and harvested in cold phosphate-buffered saline (PBS) containing protease inhibitors (Complete mini, Roche Applied Science) and Pepstatin (Sigma). The cells were then washed with Buffer B (20 mM Hepes pH 7.6, 0.25% Triton-x, 10 mM EDTA, 0.5 mM EGTA) and Buffer C (50 mM Hepes pH 7.6, 150 mM NaCl, 1 mM EDTA, 0.5 mM EGTA) were resuspended in 300 μl of SDS lysis buffer [1% SDS, 10 mM EDTA and 50 mM Tris-HCl (pH 8.1)], and incubated on ice for 10 minutes. Lysates were sonicated with 8×10 second bursts and debris were removed by centrifugation for 10 minutes at 1000 g, at 4° C. Supernatants were diluted 10-fold in ChIP dilution buffer [0.01% SDS, 1.1% Triton X-100, 1.2 mM EDTA, 16.7 mM Tris-HCl (pH 8.1) and 167 mM NaCl] and pre-cleared by incubating with 40 μl of protein A+salmon sperm beads (Upstate Biotechnology) for 30 minutes at 4° C. Beads were pelleted for 1 minute at 1000 g at 4° C. A total of 10 μl of the supernatant was saved as input, and the rest was divided into equal aliquots and incubated by rocking with either control Ab (IgG) or with of specific antibodies; Trimethyl-Histon 3K27 antibody (Upstate Biotechnology), anti acetylatedhistone H4 (Upstate Biotechnology) over night at 4° C. A total of 60 μl of protein A+salmon sperm beads was added, and the samples were rocked for 2 hours at 4° C. The complexes on the beads were washed for 5 minutes at 4° C. with the following buffers: low salt [0.1% SDS, 1% Triton X-100, 2 mM EDTA, 20 mM Tris-HCl (pH 8.1) and 150 mM NaCl], high salt [0.1% SDS, 1% Triton X-100, 2 mM EDTA, 20 mM Tris-HCl (pH 8.1), 500 mM NaCl], LiCl wash [0.25 M LiCl, 1% Nonidet P-40, 1% deoxycholate, 1 mM EDTA and 10 mM Tris-HCl (pH 8.1)], and twice with TE [10 mM Tris-HCl and 1 mM EDTA (pH 8.0)]. Immune complexes were eluted twice with 200 μl of elution buffer [1% SDS and 0.1 M NaHCO3]for 15 minutes at room temperature. The samples were de-crosslinked by adding 16 μl of 5 M NaCl, 8 μl of 0.5 M EDTA (pH 6.5) and 16 μl of 1M Tris-HCl (pH 8.1) and incubated O.N at 65° C. Proteinase K (10 mg/ml) and the samples were incubated for additional 2 hours at 55° C. Immunoprecipitated DNA was recovered by phenol/chloroform extraction and ethanol precipitation and was analyzed by quantitative RT PCR.

[4] = system: human adult kidney cells; experiment: Flow cytometry of renal progenitor surface markers after VPA; type: cell-based; details: 24 h 4 mM VPA, FACS
Protocol: (§2) Cell Treatment: Cells were treated for 24 hours with growth medium supplemented with 1, 2, or 4 mM VPA (Sigma) or with H2O for control sample. Otherwise, cells were treated for 24 hours with growth medium supplemented with the combination of 75 μM TSA (Sigma) and 250 μM 5-AZA (Sigma) or with 100% Ethanol and Acetic Acid (Acetic Acid: H2O 1:1) for control sample. […] 24 hours prior to harvesting VPA at a concentration of 4 mM was added to the cell culture.
(§3) Flow Cytometry: Cells were detached from culture plated with non-enzymatic cell dissociation solution (Sigma-Aldrich). Cells (1×10^5 in each reaction) were suspended in 50 μl of FACS buffer [0.5% BSA and 0.02% sodium azid in PBS (Sigma-Aldrich and Invitrogen, respectively)] and blocked with FcR Blocking Reagent (MiltenyiBiotec) and human serum (1:1) for 15 minutes. Cells were then incubated for 45 minutes with the following primary antibodies: CD24-PE, NCAM1-PE, (both from eBioscience), CD133-APC, PSA-NCAM (both from MiltenyiBiotec), FZD7-biotin, NTRK2 (both from R&D Systems) or a matching isotype control. Cells were washed with FACS buffer, and incubated for 30 minutes with a secondary antibody if needed: goat anti mouse Streptavidin-APC (BD) or goat anti mouse Alexa Fluor 647 (Invitrogen). Cell's labeling was detected using FACSCalibur (BD). Flow cytometry results were analyzed using FlowJo analysis software. Viable cells were gated by both their FSC/SSC profile and 7AAD (eBioscience) exclusion.

[5] = system: human fetal kidney cells; experiment: as above; type: cell-based; details: 24 h 4 mM VPA, FACS
Protocol: as §2, §3

SMILES: CCCC(CCC)C(=O)O [VPA, valproic acid]
- β-catenin immunofluorescence localisation [1]: cyoplasmic and nuclear accumulation
- β-catenin immunofluorescence localisation [2]: cyoplasmic and nuclear accumulation
- H3K4me at Six2 promoter regions [3]: significant increases
- H3K4me elevation in the Wt1 promoter region [3]: not
- H3K27me in the Wt1 promoter region [3]: modest elevation
- H3K27me levels at Six2 promoter regions [3]: no change
- acetylated histones H4 at Six2 promoter regions (-92, -412, -541, -731, -955, -1157) [3]: significantly increased
- PSA-NCAM surface expression elevation ([4]; especially in the adult kidney): 5-10 fold
- CD133 surface expression ([4]; adult kidney cells): milder changes
- NCAM surface expression levels ([4]; adult kidney cells): significant upregulation
- CD133 surface expression [5]: milder changes
- NCAM surface expression levels [5]: significant upregulation
- PSA-NCAM surface expression levels [5]: significant upregulation
